# Measurements taken from patent EP2662079A1 (Ordway Research Institute, Inc., priority 2012, dated 2013).
# “And” between values parts separate entries of the source, which are not always exact repeats. Equal values may be shown once.
# Columns and labels:
# [1] = system: SKN-SH, SaOS2, and MCF7 cells; experiment: Proliferation of drug-sensitive and drug-resistant cancer cells (MTT assay); format: cell-based
# Description: Cells were harvested and nuclear fractions prepared as described previously. Nucleoproteins, separated by gel electrophoresis, were immunoblotted with antibody to phosphorylated MAPK (pERK1 and pERK2, 44 and 42 kDa, respectively), followed by a second antibody linked to a luminescence-detection system. A β-action immunoblot of nuclear fractions serves as a control for gel loading in each part of this figure. […] The levels of FGF2 cDNA, shown in the top blot, were corrected for variations in GAPDH cDNA content, shown in the bottom blot, and the corrected levels of FGF2 are illustrated below in the graph (mean ±SE of mean; n = 2 experiments). […] Drug-sensitive and -resistant SKN-SH (Figures 13C-D), SaOS2 (Figures 13A-B), and MCF7 (Figures 13E-F) cells were subjected to treatment with increasing concentrations of Tetrac or Doxirubicin over a period of 4 days. Cell viability was then measured by MTT assay. […] The cells were treated for 24 h with each drug alone or the combination of both, after that, expression of drug resistance molecules was determined by Western blot using specific antibodies. […] The cells were incubated for 24 hours with doxorubicin in the absence or the presence of Tetrac, after that they were washed and then solubilized. […]
# Matrigel plugs = experiment: Mouse Matrigel model of angiogenesis (plug hemoglobin); format: in vivo, mice (C57BL/6NCr)
# Experimental: Normal male mice (C57BL/6NCr) 6-8 weeks of age and weighing ~20 g were purchased from Taconic farm. Animals were housed 4 per cage, in controlled conditions of temperature (20-24 °C); humidity (60-70%) and 12 hrs. light/dark cycle provided with food and water ad libitum. […] Matrigel (BD Bioscience, San Jose CA) was thawed overnight at 4 °C and placed on ice. Aliquots of matrigel were placed into cold polypropylene tubes to prevent the matrigel from solidifying and the angiogenesis promoter added to matrigel with or without agonist. Mice were treated daily. Matrigel was subcutaneously injected as triple injection per animal at 100 µL/animal. At day 14 post plug implant all animals were killed in CO2 chamber and matrigel plugs were collected. […]
# The matrigel plugs dissected from the mice were carefully stripped of any remaining peritoneum. The plugs were placed into 0.5 mL tube of ddH2O and homogenized for 5-10 min. […] Absorbance was read with a Microplate Manager ELISA reader at 540 nm. […] Hemoglobin concentration is a reflection of the number of blood vessels in the plugs.
# U87MG cells = experiment: Neutral comet assay (DNA double-strand breaks); format: cell-based, human
# Experimental: For the comet assay studies of induction and repair of DSBs in U87MG cells, cells were treated as described above. However, for the single dose induction ofDSBs doses ranged from 0-30 Gy, and for the study of the repair ofDSBs in irradiated cells, a large single dose of 60 Gy requiring approximately 1 h of irradiation time was given. Appropriate temperature controls (on ice) were run to insure that no decrement in survival was produced by the 1 h exposure to 0°C.
# U87MG cells on plastic slides were exposed to 2 nM Tetrac for 1 h at 37°C. These slides were then placed on crushed ice and irradiated with doses from 0 to 75 Gy. Slides were immersed in lysing solution at 50°C for 2 hours. Slides were washed, and placed into a gel electrophoresis unit. Electrophoresis was carried out at 0.66 V/cm for 25 min. Cells were stained with ethidium bromide and image analysis was done using an epifluoresence microscope at a total magnification of 400 X. We also used an excitation filter of 515-535 nm and a barrier filter at 590 nm. The mean tail moment (TM) which is expressed in arbitrary units was then calculated. TM was calculated using a CCD camera and software. Approximately 350 comets were analyzed per condition.
# MCF7/R cells = experiment: Growth of doxorubicin-resistant tumors in nude mice; format: in vivo; settings: Tetrac 30 mg/kg (Figure 17)
# GL261 cells [2] = experiment: Cell multiplicity after Tetrac exposure; format: cell-based, murine; settings: after one hour exposure to Tetrac
# Experimental: Cell multiplicity (CM) was determined from Giemsa stained slides by counting the number of cells per microcolony under 20 X magnification. At least 400 microcolonies were counted.
# The length of time that Tetrac biologically affected GL261 cells was also determined. To do this, the multiplicity relationship defined above was utilized. Tetrac was added to cells one hour prior to the determination of the multiplicity. After the exposure of exponentially growing GL261 cells to Tetrac, the Tetrac containing medium was removed from GL261 cells, which contained an unknown residual and fresh medium (without Tetrac) was added. As a function of time (i.e., 0, 1, 2, 3, 4, 6, 8, and 10 hours, and 1-6 days), the cells, containing an unknown residual amount of remaining Tetrac, were then processed for determination of the multiplicity index (i.e. the number of cells per microcolony).
# GL261 cells [3] = experiment: Potentially lethal damage repair (PLDR); format: cell-based, murine
# Experimental: PLDR was also measured using the 10% survival level in both control and Tetrac treated-cells, and was also done for both exponentially growing and plateau phase cells. The total 10% survival dose was given, and then cells were placed back into the 37°C incubator for various periods of time. At 0, 0.5, 1.0, 1.5, 2.0, 3.0, 4.0, 6.0, 8.0, and 10.0 hours, flasks were removed, and processed for survival assessment.
# To investigate the effects of Tetrac on SLDR and PLDR, cells were chosen that had been given a one-hour treatment with Tetrac at two different times, i.e., at 70 and 270 hours post-seeding).
# [4] = single dose of 30 Gy, Tetrac-treated cells
structure (smiles),measurement,setting,value
"O=C(O)Cc1cc(I)c(Oc2cc(I)c(O)c(I)c2)c(I)c1 [Tetrac, 3,3',5,5'-tetraiodothyroacetic acid]",anti-proliferative activity in vitro against drug-sensitive and drug-resistant cells,"[1]; 4 days, MTT (Figure 13)",equivalent
same,"cellular responses to doxorubicin, etoposide, cisplatin and TSA when combined with Tetrac","[1]; resistant SKN-SH/R, MCF7/R and SaOS2/R cells (Figure 14)",significantly enhanced
same,Hemoglobin (mg/mL)± SEM,"Matrigel plugs; FGF 100 ng + compound 10 µg/plug, n= 7-14",0.5 ± 0.1 mg/mL
same,Mean inhibition of angiogenesis (%),"Matrigel plugs; FGF-induced angiogenesis, 10 µg/plug",85%
same,Hemoglobin (mg/mL)± SEM,"Matrigel plugs; T4 + antagonist, each 10 µg/matrigcl plug",0.4 ± 0.1 mg/mL
same,increase of the slow repair part of the curve,U87MG cells,approximately 2.2 fold
same,sensitization factor (steady-state DSB levels),U87MG cells; 0 Gy,2.2
same,mean tail moment,"U87MG cells; 0 radiation dose, 1 h Tetrac at 37°C, arbitrary units",12.4 and 13.1
same,slope of DSB repair versus time,U87MG cells; after 30 Gy of x-rays (control -4.36),-1.20
same,relative percentage of fast repair,U87MG cells; [4],16%
same,relative percentage of slow repair,U87MG cells; [4],84%
same,inhibition of the repair of DNA double strand breaks,U87MG cells; vs control U87MG cells,72.5%
same,growth of drug resistant tumors in nude mice,MCF7/R cells,effective in suppressing the growth
same,time for a 50% return of the cell multiplicity factor towards control level,GL261 cells [2],approximately 2.5 days
same,time post Tetrac treatment at which decrease in the CM factor was recorded at 50%,GL261 cells [2],60 h
same,factor by which Tetrac inhibited PLDR,GL261 cells [3]; exponential cells,1.9
same,factor by which Tetrac decreased PLDR expression,GL261 cells [3]; plateau phase cells,3.4
